The subject of assay [1] is postmenopausal patients with osteoporosis. The settings on record: 100 μg/day once-daily subcutaneous injections for 6 months; cited from earlier work.
In assay [2] the test system is wild-type strain 129 female mice. As to the kind of experiment: Determination of cortical bone thickness and area after PTH treatment, wild-type mice. To be noted: WT mice, PTH(+) group, 80 μg/kg s.c., 4 weeks. The assay is classed as in vivo, mouse. The method, then: Horizontal sections were prepared from the femoral mid-diaphysis and tomographed using an X-ray microtomograph Musashi (Nittetsu-ELEX, Osaka, Japan). A Luzex-F automated image analysis system (Nireco, Tokyo, Japan) was then used for analysis of the image data to determine the thickness and area of cortical bone. The thickness was evaluated at the mean value averaged over 8 measurements every 45°. Recombinant human PTH(1-34) (Bachem, Torrance, Calif.) was dissolved in acidified physiological saline supplemented with 0.1% bovine serum albumin (Sigma Chemical Co.-Aldrich, St. Louis, Mo.). The OPN-KO mice were subcutaneously administered with 80 μg/kg of body weight human PTH(1-34) for 4 weeks on a five-days-a-week basis. Mice in the control group were administered with physiological saline alone. The effect of PTH on bone metabolism was also examined in the same manner as shown in Example 1, using wild-type strain 129 female mice (7 weeks of age). These mice were divided into groups of 6 mice each.

Assay [3] shares this test system. As to the kind of experiment: BFR and MAR in cancellous bone (distal end of femur) after PTH treatment, wild-type mice. Format: in vivo, mouse. To be noted: WT mice. The method, then:
BFR denotes bone formation rate per unit trabecular area (μm^3/μm^2/day). MAR denotes the rate of increase in the distance between labeled calcified bands (μm/day). In the case of cancellous bone, decalcified sagittal sections were prepared from the metaphyseal region and analyzed for BFR and MAR in a 1.4 mm^2 square area located 0.2 mm apart from the growth plate of the distal end of femur. Labeling was accomplished by subcutaneous administration of xylenol orange (100 mg/kg of body weight) 4 days before and calcein 2 days before sampling. Recombinant human PTH(1-34) (Bachem, Torrance, Calif.) was dissolved in acidified physiological saline supplemented with 0.1% bovine serum albumin (Sigma Chemical Co.-Aldrich, St. Louis, Mo.). The OPN-KO mice were subcutaneously administered with 80 μg/kg of body weight human PTH(1-34) for 4 weeks on a five-days-a-week basis. Mice in the control group were administered with physiological saline alone. The effect of PTH on bone metabolism was also examined in the same manner as shown in Example 1, using wild-type strain 129 female mice (7 weeks of age). These mice were divided into groups of 6 mice each.

The test system of assay [4] is OPN knockout (OPN-KO) mice. As to the kind of experiment: Determination of cancellous bone mass (BV/TV) after PTH treatment, OPN-KO mice. Format: in vivo, mouse. The settings on record: PTH(+) group, 80 μg/kg s.c., 4 weeks, five days a week, mean ± standard error. How it is done: Sagittal sections were prepared from the metaphyseal region of femur and tomographed using an X-ray microtomograph Musashi (Nittetsu-ELEX, Osaka, Japan). A Luzex-F automated Image analysis system (Nireco, Tokyo, Japan) was then used for analysis of the image data from a 1.47 mm^2 square area (0.7 mm×2.1 mm) located 0.2 mm apart from the growth plate of the distal end of femur to obtain BV/TV values.
BV/TV (bone volume/total tissue volume) denotes the unit bone mass (%), i.e., the percentage of the total trabecular volume in the total tissue volume. Namely, an increase in BV/TV means an increase in calcified bone.
(§1) To create an animal model in which the in vivo effects of OPN were inhibited, strain 129 female mice at 7 weeks of age were modified into knockout mice deficient in the OPN gene (OPN-KO mice), as described in Rittling et al. J. Bone Miner. Res., 13: 1101-1111, 1998. These mice were singly used for PTH treatment test. They were divided into groups of 6 mice each.
(§2) Recombinant human PTH(1-34) (Bachem, Torrance, Calif.) was dissolved in acidified physiological saline supplemented with 0.1% bovine serum albumin (Sigma Chemical Co.-Aldrich, St. Louis, Mo.). The OPN-KO mice were subcutaneously administered with 80 μg/kg of body weight human PTH(1-34) for 4 weeks on a five-days-a-week basis. Mice in the control group were administered with physiological saline alone.

Assay [5] deals with wild-type strain 129 female mice. As to the kind of experiment: Determination of cancellous bone mass (BV/TV) after PTH treatment, wild-type mice. The assay is classed as in vivo, mouse. To be noted: WT mice, PTH(+) group, 80 μg/kg s.c., 4 weeks, five days a week. How it is done:
Sagittal sections were prepared from the metaphyseal region of femur and tomographed using an X-ray microtomograph Musashi (Nittetsu-ELEX, Osaka, Japan). A Luzex-F automated Image analysis system (Nireco, Tokyo, Japan) was then used for analysis of the image data from a 1.47 mm^2 square area (0.7 mm×2.1 mm) located 0.2 mm apart from the growth plate of the distal end of femur to obtain BV/TV values. BV/TV (bone volume/total tissue volume) denotes the unit bone mass (%), i.e., the percentage of the total trabecular volume in the total tissue volume. Namely, an increase in BV/TV means an increase in calcified bone. Recombinant human PTH(1-34) (Bachem, Torrance, Calif.) was dissolved in acidified physiological saline supplemented with 0.1% bovine serum albumin (Sigma Chemical Co.-Aldrich, St. Louis, Mo.). The OPN-KO mice were subcutaneously administered with 80 μg/kg of body weight human PTH(1-34) for 4 weeks on a five-days-a-week basis. Mice in the control group were administered with physiological saline alone. The effect of PTH on bone metabolism was also examined in the same manner as shown in Example 1, using wild-type strain 129 female mice (7 weeks of age). These mice were divided into groups of 6 mice each.

The subject of the next assay is osteoporosis patients. To be noted: 21 patients, once-daily subcutaneous injections for 6 to 24 months; cited from earlier work.
The test system of assay [6] is OPN knockout (OPN-KO) mice. As to the kind of experiment: Analysis of urinary deoxypyridinoline (Dpyr) after PTH treatment, OPN-KO mice. Format: in vivo, mouse. The method, then: At 26 days after treatment with PTH, a 24-hour urine sample was collected from each mouse (10 samples per group). As a marker of bone metabolism, the level of urinary deoxypyridinoline (Dpyr) was measured for each sample using an ELISA kit (Metra Biosystems, San Diego, Calif.) in accordance with the manufacturer's protocol.
as §1, §2

The mark [7] stands for this setting: PTH(+) group, 80 μg/kg s.c., 4 weeks.

Regarding human PTH(1-34), in assay [1], the calcium balance entry was “restored normal calcium balance” and the cancellous bone mass result was “increased cancellous bone mass”. In assay [2], the “area of cortical bone” value is 0.69±0.03 mm^2 and the “thickness of cortical bone” value came out at 0.20±0.01 mm. For the same substance, in assay [3] (setting [7]), the “BFR in cancellous bone” value is reported as 1.85±0.08 μm^3/μm^2/day and the “MAR in cancellous bone” value worked out at 4.84±0.21 μm/day. In assay [3] (PTH(+) vs PTH(−) group, p<0.05), the “fold increase in cancellous BFR by PTH treatment” value is listed as “about 1.4 fold” and the “fold increase in cancellous MAR by PTH treatment” value is on record as ~1.3 fold. In addition, the “cancellous bone mass BV/TV” value in assay [4] is recorded as 24.41±2.85%. Besides, the “cancellous bone mass BV/TV” value in assay [5] is 21.17±2.68%. In the assay on osteoporosis patients, the calcium balance result is recorded as “no improvement in calcium balance”, the cancellous bone mass entry is given as “increased cancellous bone mass” and the cortical bone mass result is listed as “reduced cortical bone mass”. Also, the “urinary Dpyr level” value in assay [6] (PTH(+) group, 24-hour urine at 26 days) amounted to 34.67±4.52 nM/mM Cr. In assay [6] (PTH(+) vs PTH(−) group, p<0.05), the “fold increase in systemic bone resorption (urinary Dpyr) by PTH treatment” value was ~1.2 fold.

These data come from US20080076711A1, “Therapeutic agents for osteopenia” (Chugai Seiyaku Kabushiki Kaisha, priority 2001, published 2008).
